One experiment has as its system α-glucosidase. The note with it: cited from earlier work.
For the next experiment, the target named is T1, glucosidase I (Bos taurus, UniProt A0A3Q1M9D9).
T1 construct: Glucosidase I was solubilized from calf pancreas microsomes; from tissue; host or cells: calf pancreas microsomes
T1 sequence (A0A3Q1M9D9 1-839): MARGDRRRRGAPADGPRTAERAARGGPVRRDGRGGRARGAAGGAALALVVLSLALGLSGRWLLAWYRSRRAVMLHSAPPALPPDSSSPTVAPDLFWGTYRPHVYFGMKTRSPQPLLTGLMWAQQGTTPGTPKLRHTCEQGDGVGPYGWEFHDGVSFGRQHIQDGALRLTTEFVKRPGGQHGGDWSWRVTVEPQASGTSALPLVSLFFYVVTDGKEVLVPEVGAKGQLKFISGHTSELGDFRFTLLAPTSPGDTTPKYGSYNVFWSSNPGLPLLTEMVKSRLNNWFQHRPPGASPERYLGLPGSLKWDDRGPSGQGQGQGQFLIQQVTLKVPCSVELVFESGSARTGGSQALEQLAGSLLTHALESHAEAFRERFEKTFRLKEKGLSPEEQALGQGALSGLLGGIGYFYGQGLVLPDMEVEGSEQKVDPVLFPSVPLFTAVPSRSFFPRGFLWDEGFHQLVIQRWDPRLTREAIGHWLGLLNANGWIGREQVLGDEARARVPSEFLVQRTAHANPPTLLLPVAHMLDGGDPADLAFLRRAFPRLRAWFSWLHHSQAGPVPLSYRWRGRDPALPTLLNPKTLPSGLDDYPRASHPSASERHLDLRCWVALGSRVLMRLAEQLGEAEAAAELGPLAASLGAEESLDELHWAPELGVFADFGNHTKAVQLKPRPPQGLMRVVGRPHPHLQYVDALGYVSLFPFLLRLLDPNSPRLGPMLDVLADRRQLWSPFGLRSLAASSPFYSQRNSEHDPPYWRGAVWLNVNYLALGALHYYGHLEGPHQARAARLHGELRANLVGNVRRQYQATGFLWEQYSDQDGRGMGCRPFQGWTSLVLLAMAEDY
The experiment is described as follows: Assay for glucosidase I activity (14C-Glc3Man9GlcNAc2 substrate, ConA-Sepharose, scintillation counting). In kind it is biochemical, calf. As to conditions: 1 mM concentration. How it is done: Some of the compounds described herein were evaluated as inhibitors of glucosidase I activity. Glucosidase I was purified by a literature procedure as follows. To prepare an affinity matrix, carboxypentyl-deoxynojirimycin was coupled with Affigel 102 according to Shailubhai et al^51. Glucosidase I was solubilized from calf pancreas microsomes, and purified from glucosidase II activity by affinity chromatography according to the same authors.
Substrates for Assay of Glucosidase I ^14 C-labelled Glc3 Man9 GlcNAc2 -PP-Dol was prepared by the incubation of UDP-[^14 C]Glc with calf pancreas microsomes as described by Herscovien et al^52. Glc3 Man9 GlcNAc2 was released by mild acid hydrolysis and purified by BioGel P4 chromatography.
Assay for Glucosidase I Activity
Affinity purified glucosidase I was assayed as described by Saunier et al.^53 by adsorption of undigested substrate […] to ConA-Sepharose and scintillation counting of [^14 C]Glc in the column eluent. Oligosaccharides as potential inhibitors were evaluated using castanospermine as a baseline inhibitor.

The subject of experiment [1] is α-glucosidase I from bovine mammary gland. As to conditions: cited from earlier work.
For experiment [2], the system named is α-glucosidase I from mung bean seedlings. The note with it: cited from earlier work.
Experiment [3] relates to α-glucosidase I from rat liver microsomes. As to conditions: cited from earlier work.
Experiment [4] concerns α-glucosidase I from yeast microsomal preparation. The note with it: cited from earlier work.
Where [5] appears, read: affinity purified glucosidase I from calf pancreas microsomes, read-out: inhibition of glucosidase I activity.

Read-outs that look alike come from different tables or passages of the source.

With `C[C@H]1O[C@H](O[C@H]2[C@H](O)[C@@H](O)[C@@H](O[C@H]3[C@H](O)[C@@H](O)[C@@H](O)O[C@@H]3CO)O[C@@H]2CO)[C@H](O)[C@@H](O)[C@@H]1N[C@H]1C[C@H](CO)[C@@H](O)[C@H](O)[C@H]1O` [dihydroacarbose], the α-glucosidase inhibition result with α-glucosidase is “potent”.
As to `COC(=O)CCCCCCCCO[C@H]1O[C@H](CN)[C@@H](O)[C@H](O)[C@H]1O[C@H]1O[C@H](CO)[C@@H](O)[C@H](O)[C@H]1O` [compound 57, 8-Methoxycarbonyloctyl 6-amino-6-deoxy-2-O-(α-D-glucopyranosyl)-α-D-glucopyranoside], the inhibition at 1000 µM at glucosidase I (versus known compound 44, read-out: increase in inhibition activity relative to compound 44) came out at 70%; on glucosidase I (setting [5]), 34%.
As for `COC(=O)CCCCCCCCO[C@H]1O[C@H](CO)[C@@H](O)[C@H](O)[C@H]1O[C@H]1O[C@H](CO)[C@@H](O)[C@H](O)[C@H]1O` [compound 44, 8-Methoxycarbonyloctyl 2-O-(α-D-glucopyranosyl)-α-D-glucopyranoside], on glucosidase I (setting [5]), the inhibition at 1000 µM was determined as 20%.
For `C[C@H]1O[C@H](O[C@H]2[C@H](O)[C@@H](O)[C@@H](O[C@H]3[C@H](O)[C@@H](O)C(O)O[C@@H]3CO)O[C@@H]2CO)[C@H](O)[C@@H](O)[C@@H]1N[C@H]1C=C(CO)[C@@H](O)[C@H](O)[C@H]1O` (stereo partly drawn) [acarbose], in the experiment with α-glucosidase, the α-glucosidase inhibition entry is listed as “potent”.
Regarding `OC[C@H]1O[C@H](O[C@H]2C(O)O[C@H](CO)[C@@H](O)[C@@H]2O)[C@H](O)[C@@H](O)[C@@H]1O` (stereo partly drawn) [Kojibiose], the “inhibition of α-glucosidase I” value in experiment [1], in experiment [2], in experiment [3] and in experiment [4] was “inhibited” each time.

The inhibition is the relative decrease from the control value, in per cent.
